Molecules are shown by their SMILES.

In patent US8598190B2, “3H-imidazo [4, 5-C] pyridine-6-carboxamides as anti-inflammatory agents” (Boehringer Ingelheim International GmbH, priority 2008, dated 2013) one finds inhibition data, which are given here for 28 compounds.

The assay has as its target T1, recombinant human mPGES-1 (Homo sapiens, UniProt O14684).
T1 construct: made in house; host or cells: Rosetta E. coli (microsomal/membrane fraction)
T1 sequence (O14684 1-152): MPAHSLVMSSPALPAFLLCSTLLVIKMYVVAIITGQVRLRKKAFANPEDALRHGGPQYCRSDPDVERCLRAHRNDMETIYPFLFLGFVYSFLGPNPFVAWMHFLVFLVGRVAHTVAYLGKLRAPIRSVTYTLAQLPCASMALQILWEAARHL
In words: mPGES-1 inhibition test (microsomes, HTRF detection of PGE2). The format is biochemical. On the procedure: Microsomes from Rosetta E. coli bacteria expressing recombinant human mPGES-1 is dissolved in 0.1 M KPi pH 7.4 buffer containing 2.5 mM GSH. 50 μl of the enzyme is subsequently dispensed in a 384-well plate. 0.5 μl of the inhibitor dissolved in DMSO at is thereafter added to each well and incubated for 25 minutes at room temperature.
Subsequently, 2 μl of PGH2 dissolved in an appropriate solvent is added to each well and after one minute the acidified stop solution containing FeCl2 is added. 4 μl of the total volume is transferred to a separate plate and diluted 750-fold in two separate steps before HTRF detection of PGE2.
The HTRf detection is performed by the use of a commercially available kit from CisBio essentially according to the manufacturer's protocol. Briefly, 10 μl of the diluted sample is transferred to a white 384-well plate. 5 μl of d2 and 5 μl Eu3+-Cryptate labeled anti-PGE2 is added to each well containing samples by the use of a Multidrop. The plate is covered with a plastic self-adhesive film, centrifuged at 1200 rpm for 1 minute and subsequently stored at +4° C. over night.
After over night incubation the fluorescence is measured by the use of an appropriate microplate reader. The fluorescence of europium cryptate, and d2 are measured using the following excitation and emission wavelength, europium cryptate: λmax^ex=307 nm, λmax^em=620 nm and d2: λmax^ex=620 nm, λmax^em=665 nm), respectively. The extent of the specific FRET is measured as a ratio of the emission intensity at 665 nm vs. that at 620 nm. A standard curve using synthetic PGE2 is used to quantify the amount of PGE2 in unknown samples.

The term inhibition denotes the relative decrease from the control value, in per cent. For `Cc1cc(NC(=O)c2cc3[nH]c(Nc4c(Cl)cccc4Cl)nc3cn2)ncc1F` [Example 719, 2-(2,6-Dichlorophenylamino)-N-(5-fluoro-4-methyl-pyridin-2-yl)-1H-imidazo[4,5-c]pyridine-6-carboxamide], the inhibition at 10 µM turned out to be 100%.
Turning to `Cc1cnc(NC(=O)c2cc3nc(Nc4c(Cl)cccc4Cl)n(C)c3cn2)cc1C` [Example 724, 2-(2,6-Dichlorophenylamino)-3-methyl-N-(4,5-dimethyl-pyridin-2-yl)-3H-imidazo[4,5-c]pyridine-6-carboxamide], the inhibition at 10 µM is 100%.
Regarding `O=C(Nc1cc(C2CC2)ccn1)c1cc2[nH]c(Nc3c(Cl)cccc3Cl)nc2cn1` [Example 445, N-(4-Cyclopropylpyridin-2-yl)-2-(2,6-dichlorophenylamino)-1H-imidazo[4,5-c]-pyridine-6-carboxamide], the inhibition at 10 µM turned out to be 98%.
As to `Cn1c(Nc2c(F)cccc2Cl)nc2cc(C(=O)NCc3ncccc3C(F)(F)F)ncc21` [Example 504, 2-(2-Chloro-6-fluorophenylamino)-3-methyl-N-((3-trifluoromethyl-pyridin-2-yl)-methyl)-3H-imidazo[4,5-c]pyridine-6-carboxamide], the inhibition at 10 µM turned out to be 100%.
Consider `O=C(Nc1ccc(C2CC2)cn1)c1cc2[nH]c(Nc3c(Cl)cccc3Cl)nc2cn1` [Example 725, 2-(2,6-Dichlorophenylamino)-N-(5-cyclopropyl-pyridin-2-yl)-1H-imidazo[4,5-c]pyridine-6-carboxamide], for which the inhibition at 10 µM stood at 100%.
Next, `O=C(N[C@H]1CC[C@H](C(F)(F)F)CC1)c1cc2[nH]c(Nc3c(Cl)cccc3Cl)nc2cn1` [Example 481, 2-(2,6-Dichlorophenylamino)-N-((1r,4r)-4-trifluoromethyl-cyclohexyl)-1H-imidazo[4,5-c]pyridine-6-carboxamide]: 98%; `CC1(C)CCC(NC(=O)c2cc3nc(Nc4c(Cl)cccc4Cl)[nH]c3cn2)CC1` [Example 83, 2-(2,6-Dichloro-phenylamino)-3H-imidazo[4,5-c]pyridine-6-carboxylic acid (4,4-dimethyl-cyclohexyl)-amide]: 100%; `O=C(Nc1cc(C(F)(F)F)ccn1)c1cc2[nH]c(Nc3c(Cl)cccc3C(F)(F)F)nc2cn1` [Example 728, 2-(2-Chloro-6-trifluoromethyl-phenylamino)-N-(4-trifluoromethyl-pyridin-2-yl)-1H-imidazo[4,5-c]pyridine-6-carboxamide]: 98%.
Consider `Cn1c(Nc2c(Cl)cccc2Cl)nc2cc(C(=O)NCc3ncccc3C(F)(F)F)ncc21` [Example 528, 2-(2,6-Dichlorophenylamino)-3-methyl-N-((3-trifluoromethyl-pyridin-2-yl)-methyl)-3H-imidazo[4,5-c]pyridine-6-carboxamide], for which the inhibition at 10 µM came out at 96%.
Next, `Cc1cc(C)nc(NC(=O)c2cc3[nH]c(Nc4c(Cl)cccc4Cl)nc3cn2)c1` [Example 716, 2-(2,6-Dichlorophenylamino)-N-(4,6-dimethyl-pyridin-2-yl)-1H-imidazo[4,5-c]pyridine-6-carboxamide]: 100%.
Regarding `O=C(Nc1ccc(C(F)(F)F)cn1)c1cc2[nH]c(Nc3c(Cl)cccc3Cl)nc2cn1` [Example 720, 2-(2,6-Dichlorophenylamino)-N-(5-trifluoromethyl-pyridin-2-yl)-1H-imidazo[4,5-c]pyridine-6-carboxamide], the inhibition at 10 µM came to 100%.
`O=C(Nc1cc(C(F)(F)F)ccn1)c1cc2[nH]c(Nc3c(Cl)cccc3Cl)nc2cn1` [Example 414, 2-(2,6-Dichlorophenylamino)-N-(4-trifluoromethyl-pyridin-2-yl)-1H-imidazo[4,5-c]pyridine-6-carboxamide]: the inhibition at 10 µM stood at 100%.
Next, `O=C(Nc1cc(OC2CCOC2)ccn1)c1cc2[nH]c(Nc3c(Cl)cccc3Cl)nc2cn1` (stereo not shown) [Example 495, 2-(2,6-Dichlorophenylamino)-N-(4-(tetrahydrofuran-3-yl-oxy)-pyridin-2-yl)-1H-imidazo[4,5-c]pyridine-6-carboxamide]: 86%; `O=C(NCC(F)(F)C(F)(F)C(F)(F)C(F)(F)C(F)(F)C(F)(F)C(F)(F)F)c1cc2[nH]c(Nc3c(Cl)cccc3Cl)nc2cn1` [Example 721, 2-(2,6-Dichlorophenylamino)-N-(2,2,3,3,4,4,5,5,6,6,7,7,8,8,8-pentadecafluoro-octyl)-1H-imidazo[4,5-c]pyridine-6-carboxamide]: 100%.
Next, `O=C(Nc1ccc(Br)cc1)c1cc2[nH]c(Nc3c(Cl)cncc3Cl)nc2cn1` [Example 732, 2-(3,5-Dichloro-pyridin-4-yl-amino)-N-(4-bromo-phenyl)-1H-imidazo[4,5-c]pyridine-6-carboxamide]: 100%; `Cc1cc(NC(=O)c2cc3nc(Nc4c(Cl)cccc4Cl)n(C)c3cn2)ncc1Cl` [Example 726, 2-(2,6-Dichlorophenylamino)-3-methyl-N-(5-chloro-4-methyl-pyridin-2-yl)-3H-imidazo[4,5-c]pyridine-6-carboxamide]: 100%.
As for `Cc1cc(C(F)(F)F)cc(NC(=O)c2cc3[nH]c(Nc4c(Cl)cccc4Cl)nc3cn2)n1` [Example 723, 2-(2,6-Dichlorophenylamino)-N-(6-methyl-4-trifluoromethyl-pyridin-2-yl)-1H-imidazo[4,5-c]pyridine-6-carboxamide], the figure is 100%; as for `Cn1c(Nc2c(Cl)cncc2Cl)nc2cc(C(=O)NC3CCC(C)(C)CC3)ncc21` [Example 478, 2-(3,5-Dichloropyridin-4-ylamino)-N-(4,4-dimethylcyclohexyl)-3-methyl-3H-imidazo[4,5-c]pyridine-6-carboxamide], 100%.
Take `Cn1c(Nc2c(Cl)cccc2Cl)nc2cc(C(=O)Nc3ccc(Br)cc3)ncc21` [Example 365, N-(4-Bromophenyl)-2-(2,6-dichlorophenylamino)-3-methyl-3H-imidazo[4,5-c]pyridine-6-carboxamide]: the inhibition at 10 µM turned out to be 100%.
With `O=C(Nc1cc(C(F)(F)F)ccn1)c1cc2[nH]c(Nc3c(Cl)cc(F)cc3Cl)nc2cn1` [Example 730, 2-(2,6-Dichloro-4-fluoro-phenylamino)-N-(4-trifluoromethyl-pyridin-2-yl)-1H-imidazo[4,5-c]pyridine-6-carboxamide], the inhibition at 10 µM turned out to be 100%.
As for `Cn1c(Nc2c(F)cccc2Cl)nc2cc(C(=O)Nc3cc(C(F)(F)F)ccn3)ncc21` [Example 360, 2-(2-Chloro-6-fluoro-phenylamino)-3-methyl-N-(4-trifluoromethyl-pyridin-2-yl)-3-H-imidazo[4,5-c]pyridine-6-carboxamide], the inhibition at 10 µM amounted to 100%.
On to `Cc1cnc(NC(=O)c2cc3[nH]c(Nc4c(Cl)cccc4Cl)nc3cn2)cc1Cl` [Example 427, N-(4-Chloro-5-methyl-pyridin-2-yl)-2-(2,6-dichlorophenylamino)-1H-imidazo[4,5-c]pyridine-6-carboxamide], for which the inhibition at 10 µM amounted to 98%.
As to `Cn1c(Nc2c(Cl)cccc2Cl)nc2cc(C(=O)Nc3cc(C4CC4)ccn3)ncc21` [Example 462, N-(4-Cyclopropylpyridin-2-yl)-2-(2,6-dichlorophenylamino)-3-methyl-3H-imidazo[4,5-c]pyridine-6-carboxamide], the inhibition at 10 µM was determined as 94%.
Next, `Cn1c(Nc2c(Cl)cccc2Cl)nc2cc(C(=O)N[C@H]3CC[C@H](C(F)(F)F)CC3)ncc21` [Example 424, 2-(2,6-Dichlorophenylamino)-3-methyl-N-((1r,4r)-4-trifluoromethyl-cyclohexyl)-3H-imidazo[4,5-c]pyridine-6-carboxamide]: 100%.
As for `Cn1c(Nc2c(F)cccc2Cl)nc2cc(C(=O)NC3CCC4(CC3)CC4)ncc21` [Example 417, 2-(2-Chloro-6-fluoro-phenylamino)-3-methyl-N-(spiro[2.5]octan-6-yl)-3H-imidazo[4,5-c]pyridine-6-carboxamide], the figure is 100%; as for `O=C(Nc1cc(OC2CCCC2)ccn1)c1cc2[nH]c(Nc3c(Cl)cccc3Cl)nc2cn1` [Example 440, N-(4-(Cyclopentyloxy)pyridin-2-yl)-2-(2,6-dichlorophenylamino)-1H-imidazo[4,5-c]pyridine-6-carboxamide], 100%.
Turning to `O=C(Nc1ccc(Br)cc1)c1cc2[nH]c(Nc3c(Cl)cccc3Cl)nc2cn1` [Example 722, 2-(2,6-Dichlorophenylamino)-N-(4-bromo-phenyl)-1H-imidazo[4,5-c]pyridine-6-carboxamide], the inhibition at 10 µM was determined as 100%.
Next, `Cn1c(Nc2c(F)cccc2Cl)nc2cc(C(=O)N[C@H]3CC[C@H](C(F)(F)F)CC3)ncc21` [Example 431, 2-(2-Chloro-6-fluorophenylamino)-3-methyl-N-((1r,4r)-4-trifluoromethyl-cyclohexyl)-3H-imidazo[4,5-c]pyridine-6-carboxamide]: 100%.
